Experimental data from US20090012103A1, “SUBSTITUTED HETEROCYCLIC COMPOUNDS” (priority 2007, published 2009).

biological target: wild-type human cardiac sodium channel, hNav1.5 (Homo sapiens, UniProt Q14524); assay: Late INa screening assay (late sodium current, PatchXpress whole cell patch clamp); type: cell-based; conditions: compound at 10 μM; read-out: Late INa % blk
Procedure: The late sodium current (Late INa) and peak sodium current (Peak INa) assays are performed on an automated electrophysiology platform, PatchXpress 7000A (MDS Analytical Technologies, Sunnyvale, Calif.), which uses the whole cell patch clamp technique to measure currents through the cell membrane of up to 16 cells at a time. The assay uses an HEK293 (human embryonic kidney) cell line heterologously expressing the wild-type human cardiac sodium channel, hNav1.5, purchased from Millipore (Billerica, Mass.). No beta subunits were coexpressed with the Na channel alpha subunit. […] Experiments are carried out at 24-27° C.
For both the Late INa and Peak INa assays, series resistance compensation is set to 50% and whole-cell compensation is performed automatically. […] Currents through open sodium channels are automatically recorded and stored in the DataXpress2 database (MDS Analytical Technologies, Sunnyvale, Calif.). Analysis is performed using DataXpress2 analysis software and data are compiled in Excel.
Compound stocks are routinely made in glass vials to 10 mM in dimethyl sulfoxide (DMSO). In some cases, when compounds are not soluble in DMSO, they are made in 100% ethanol. Stocks are sonicated as necessary. The extracellular solution for screening Late INa is composed of: 140 mM NaCl, 4 mM KCl, 1.8 mM CaCl2, 0.75 mM MgCl2, and 5 mM HEPES with pH adjusted to 7.4 using NaOH. The extracellular solution for screening Peak INa is composed of: 20 mM NaCl, 120 mM N-methyl-D glucamine, 4 mM KCl, 1.8 mM CaCl2, 0.75 mM MgCl2, and 5 mM HEPES with pH adjusted to 7.4 using HCl. The intracellular solution used to perfuse the inside of the cells for both the Late INa and Peak INa assays contains: 120 mM CsF, 20 mM CsCl, 5 mM EGTA, 5 mM HEPES and pH adjusted to 7.4 with CsOH. Compounds are diluted in extracellular solution to 10 μM in glass vials and then transferred to glass well plates before robotic addition to the cells. The 0 Na extracellular solution used at the end of each experiment for the Late INa and Peak INa assays to measure baseline current contains: 140 mM N-methyl-D-glucamine; 4 mM KCl; 1.8 mM CaCl2; 0.75 mM MgCl2; 5 mM HEPES and pH was adjusted to 7.4 with HCl.
For the Late INa assay, sodium channels are activated every 10 seconds (0.1 Hz) by depolarizing the cell membrane to −20 mV for 250 milliseconds (ms) from a holding potential of −120 mV.
All compounds are tested to determine their activity in blocking the late sodium current. Late INa current is generated by adding 10 μM Tefluthrin (pyrethroid) to the extracellular solution while recording Na currents. […] For some experiments, 50 nM ATX II (sea anemone toxin), another late INa activator, was used to generate the late component. […] Baseline current in the absence of Na^+ ions is measured at the end of each experiment (after two additions of 0 Na solution-see above) and is used to calculate the percent block by compound.

wild-type human cardiac sodium channel, hNav1.5, sequence (Q14524 whole entry): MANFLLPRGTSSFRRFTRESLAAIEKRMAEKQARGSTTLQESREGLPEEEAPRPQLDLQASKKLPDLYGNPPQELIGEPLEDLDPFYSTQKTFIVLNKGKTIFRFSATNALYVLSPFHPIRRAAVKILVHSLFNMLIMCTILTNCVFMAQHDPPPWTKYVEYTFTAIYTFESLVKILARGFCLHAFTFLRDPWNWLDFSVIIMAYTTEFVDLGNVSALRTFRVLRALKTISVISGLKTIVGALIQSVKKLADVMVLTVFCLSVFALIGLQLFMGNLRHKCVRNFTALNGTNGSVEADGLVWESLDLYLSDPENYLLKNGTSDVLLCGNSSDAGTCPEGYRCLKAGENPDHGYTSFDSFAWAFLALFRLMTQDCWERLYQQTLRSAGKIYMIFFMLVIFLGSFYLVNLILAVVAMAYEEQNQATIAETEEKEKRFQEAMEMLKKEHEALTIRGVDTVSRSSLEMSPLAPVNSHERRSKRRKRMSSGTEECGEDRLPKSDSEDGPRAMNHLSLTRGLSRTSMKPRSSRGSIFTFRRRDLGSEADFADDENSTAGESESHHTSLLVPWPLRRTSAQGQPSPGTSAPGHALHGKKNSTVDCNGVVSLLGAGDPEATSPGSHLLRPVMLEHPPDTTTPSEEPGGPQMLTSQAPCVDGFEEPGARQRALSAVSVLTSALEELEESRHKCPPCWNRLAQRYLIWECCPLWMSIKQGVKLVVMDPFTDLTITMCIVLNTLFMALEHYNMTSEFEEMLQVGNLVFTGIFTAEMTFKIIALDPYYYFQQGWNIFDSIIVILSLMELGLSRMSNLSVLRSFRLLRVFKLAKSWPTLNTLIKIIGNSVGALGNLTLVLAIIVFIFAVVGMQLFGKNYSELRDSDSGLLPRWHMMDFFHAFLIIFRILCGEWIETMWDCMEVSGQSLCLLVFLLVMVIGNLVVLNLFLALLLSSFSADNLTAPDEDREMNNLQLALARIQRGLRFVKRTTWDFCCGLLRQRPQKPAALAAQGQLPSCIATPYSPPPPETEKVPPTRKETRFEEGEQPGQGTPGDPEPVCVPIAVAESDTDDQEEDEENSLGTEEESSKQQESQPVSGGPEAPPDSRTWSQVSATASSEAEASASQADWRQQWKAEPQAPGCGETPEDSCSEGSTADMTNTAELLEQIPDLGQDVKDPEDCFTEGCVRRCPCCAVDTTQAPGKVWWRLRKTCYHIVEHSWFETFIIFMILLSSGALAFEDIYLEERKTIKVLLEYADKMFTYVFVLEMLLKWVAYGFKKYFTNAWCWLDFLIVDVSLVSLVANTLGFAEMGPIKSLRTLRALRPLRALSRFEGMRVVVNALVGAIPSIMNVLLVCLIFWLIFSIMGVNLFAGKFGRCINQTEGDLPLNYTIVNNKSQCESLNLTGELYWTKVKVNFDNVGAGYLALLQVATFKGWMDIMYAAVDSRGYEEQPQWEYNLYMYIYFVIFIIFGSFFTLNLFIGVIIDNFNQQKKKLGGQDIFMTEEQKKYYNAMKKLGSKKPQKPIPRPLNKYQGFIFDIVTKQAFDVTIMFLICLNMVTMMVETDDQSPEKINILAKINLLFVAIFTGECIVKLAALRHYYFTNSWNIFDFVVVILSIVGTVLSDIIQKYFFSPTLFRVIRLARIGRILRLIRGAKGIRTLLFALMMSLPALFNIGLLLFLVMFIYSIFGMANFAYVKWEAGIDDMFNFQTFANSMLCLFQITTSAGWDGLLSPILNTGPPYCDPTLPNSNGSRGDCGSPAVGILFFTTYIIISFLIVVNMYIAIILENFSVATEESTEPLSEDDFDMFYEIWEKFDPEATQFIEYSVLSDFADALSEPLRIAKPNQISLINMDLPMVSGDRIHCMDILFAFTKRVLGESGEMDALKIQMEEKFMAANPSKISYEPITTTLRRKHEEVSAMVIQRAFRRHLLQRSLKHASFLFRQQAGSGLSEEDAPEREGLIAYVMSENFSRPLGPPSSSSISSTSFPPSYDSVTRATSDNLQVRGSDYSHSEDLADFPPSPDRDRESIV

**Q.** Which inhibition at 10 µM does the source give for `CC1=C(C(=O)OCc2ccccc2)C(c2cc3ccccc3s2)C2=C(CCCC2=O)N1` (stereo not drawn) [PT-335, benzyl 4-(benzo[b]thiophen-2-yl)-2-methyl-5-oxo-1,4,5,6,7,8-hexahydroquinoline-3-carboxylate] here?
**A.** Its inhibition at 10 µM is 58.1%.

**Q.** `CC1=C(C(=O)OCc2ccc(-c3ccccc3)cc2)C(c2cccc3ccccc23)n2nnnc2N1` (stereo not drawn) [PT-004, biphenyl-4-ylmethyl 5-methyl-7-(naphthalen-1-yl)-4,7-dihydrotetrazolo[1,5-a]pyrimidine-6-carboxylate] was tested. Which inhibition at 10 µM did it give?
**A.** Its inhibition at 10 µM is 25.5%.

**Q.** For `CCCC1=C(C(=O)OCC)C(c2ccsc2)C2=C(CC(C)(C)CC2=O)N1` (stereo not drawn) [PT-151, ethyl 7,7-dimethyl-5-oxo-2-propyl-4-(thiophen-3-yl)-1,4,5,6,7,8-hexahydroquinoline-3-carboxylate], which inhibition at 10 µM is on record?
**A.** Its inhibition at 10 µM is 35%.

**Q.** Which inhibition at 10 µM does the source give for `CCOC(=O)C1=C(C)NC(C)=C(C(=O)OCC)C1c1ccc(OC)cc1C#N` [PT-431, diethyl 4-(2-cyano-4-methoxyphenyl)-2,6-dimethyl-1,4-dihydropyridine-3,5-dicarboxylate] here?
**A.** The inhibition at 10 µM was 56.1%.

**Q.** With `CCOC(=O)C1=C(C)Nc2nccn2C1c1cccc2ccccc12` (stereo not drawn) [PT-087, ethyl 7-methyl-5-(naphthalen-1-yl)-5,8-dihydroimidazo[1,2-a]pyrimidine-6-carboxylate] as the compound, how does the inhibition at 10 µM read?
**A.** Its inhibition at 10 µM is 16.5%.

**Q.** `CCOC(=O)C1=C(C)NC2=C(C(=O)CCC2)C1c1c(OC)ccc2ccccc12` (stereo not drawn) [PT-134, ethyl 4-(2-methoxynaphthalen-1-yl)-2-methyl-5-oxo-1,4,5,6,7,8-hexahydroquinoline-3-carboxylate] was tested. Which inhibition at 10 µM did it give?
**A.** Its inhibition at 10 µM is 15.5%.

**Q.** For `CC1=C(C(=O)OCc2ccccc2)C(c2ccccc2Br)C2=C(CCCC2=O)N1` (stereo not drawn) [PT-329, benzyl 4-(2-bromophenyl)-2-methyl-5-oxo-1,4,5,6,7,8-hexahydroquinoline-3-carboxylate], which inhibition at 10 µM is on record?
**A.** The inhibition at 10 µM was 54.9%.

**Q.** `CC1=C(C(=O)OC(C)(C)Cc2ccccc2)C(c2ccccc2Br)c2cn[nH]c2N1` (stereo not drawn) [PT-263, 2-methyl-1-phenylpropan-2-yl 4-(2-bromophenyl)-6-methyl-4,7-dihydro-1H-pyrazolo[3,4-b]pyridine-5-carboxylate] was tested. Which inhibition at 10 µM did it give?
**A.** The inhibition at 10 µM was 38.8%.

**Q.** Which inhibition at 10 µM does the source give for `CCOC(=O)C1=C(C)NC2=C(C(=O)CCC2)C1c1cccnc1Cl` (stereo not drawn) [PT-189, ethyl 4-(2-chloropyridin-3-yl)-2-methyl-5-oxo-1,4,5,6,7,8-hexahydroquinoline-3-carboxylate] here?
**A.** Its inhibition at 10 µM is 0.5%.

**Q.** With `COc1ccc(-c2ccc(COC(=O)C3=C(C)Nc4nnnn4C3c3cccc4ccccc34)cc2)cc1` (stereo not drawn) [PT-199, (4′-methoxybiphenyl-4-yl)methyl 5-methyl-7-(naphthalen-1-yl)-4,7-dihydrotetrazolo[1,5-a]pyrimidine-6-carboxylate] as the compound, how does the inhibition at 10 µM read?
**A.** Its inhibition at 10 µM is 20.3%.

**Q.** With `CC1=C(C(=O)OCc2ccccc2)C(c2cccc3ccccc23)n2nnnc2N1Cc1nnn[nH]1` (stereo not drawn) [PT-326, benzyl 4-((1H-tetrazol-5-yl)methyl)-5-methyl-7-(naphthalen-1-yl)-4,7-dihydrotetrazolo[1,5-a]pyrimidine-6-carboxylate] as the compound, how does the inhibition at 10 µM read?
**A.** The inhibition at 10 µM was 39.9%.

**Q.** `CC1=C(C(=O)OCc2ccccc2)C(c2cc3ccccc3s2)n2nnnc2N1` (stereo not drawn) [PT-043, benzyl 7-(benzo[b]thiophen-2-yl)-5-methyl-4,7-dihydrotetrazolo[1,5-a]pyrimidine-6-carboxylate] was tested. Which inhibition at 10 µM did it give?
**A.** The inhibition at 10 µM was 53.8%.

**Q.** With `CC1=C(C(=O)OCc2ccccc2)C(c2cccc3ccccc23)n2ncc(-c3ccccc3)c2N1` (stereo not drawn) [PT-362, benzyl 5-methyl-7-(naphthalen-1-yl)-3-phenyl-4,7-dihydropyrazolo[1,5-a]pyrimidine-6-carboxylate] as the compound, how does the inhibition at 10 µM read?
**A.** The inhibition at 10 µM was 14.4%.

**Q.** `CC1=C(c2nnc(Cc3ccccc3)o2)C(c2cccc3ccccc23)n2nnnc2N1` (stereo not drawn) [PT-261, 2-benzyl-5-(5-methyl-7-(naphthalen-1-yl)-4,7-dihydrotetrazolo[1,5-a]pyrimidin-6-yl)-1,3,4-oxadiazole] was tested. Which inhibition at 10 µM did it give?
**A.** The inhibition at 10 µM was 59.4%.

**Q.** Which inhibition at 10 µM does the source give for `CC1=C(C(=O)OCc2ccccc2)C(c2cc(Br)ccc2OCc2ccccc2)n2nnnc2N1` (stereo not drawn) [PT-381, benzyl 7-(2-(benzyloxy)-5-bromophenyl)-5-methyl-4,7-dihydrotetrazolo[1,5-a]pyrimidine-6-carboxylate] here?
**A.** The inhibition at 10 µM was 43.7%.

**Q.** How did the inhibition at 10 µM turn out when `CCOC(=O)C1=C(C)NC(C)=C(C(=O)OCC)C1c1ccccc1-c1ccccc1` [PT-438, diethyl 4-(biphenyl-2-yl)-2,6-dimethyl-1,4-dihydropyridine-3,5-dicarboxylate] was run?
**A.** The inhibition at 10 µM was 20.9%.

**Q.** With `CC1=C(C(=O)OCc2cccs2)C(c2cccc3ccccc23)n2nnnc2N1` (stereo not drawn) [PT-525, thiophen-2-ylmethyl 5-methyl-7-(naphthalen-1-yl)-4,7-dihydrotetrazolo[1,5-a]pyrimidine-6-carboxylate] as the compound, how does the inhibition at 10 µM read?
**A.** The inhibition at 10 µM was 67.5%.

**Q.** How did the inhibition at 10 µM turn out when `CC1=C(C(=O)OCc2ccccc2)[C@@H](c2ccccc2-c2ccc(C(N)=O)cc2)n2nnnc2N1` [PT-242, (R)-benzyl 7-(4′-carbamoylbiphenyl-2-yl)-5-methyl-4,7-dihydrotetrazolo[1,5-a]pyrimidine-6-carboxylate] was run?
**A.** Its inhibition at 10 µM is 11%.

**Q.** How did the inhibition at 10 µM turn out when `COc1ccc2c(C3C(C(=O)OCc4ccccc4)=C(C)Nc4nnnn43)ccc(OC)c2c1` (stereo not drawn) [PT-033, benzyl 7-(4,6-dimethoxynaphthalen-1-yl)-5-methyl-4,7-dihydrotetrazolo[1,5-a]pyrimidine-6-carboxylate] was run?
**A.** The inhibition at 10 µM was 23.3%.

**Q.** For `COCCOc1ccc(C2C(C(=O)OCc3ccccc3)=C(C)Nc3nnnn32)cc1` (stereo not drawn) [PT-406, benzyl 7-(4-(2-methoxyethoxy)phenyl)-5-methyl-4,7-dihydrotetrazolo[1,5-a]pyrimidine-6-carboxylate], which inhibition at 10 µM is on record?
**A.** The inhibition at 10 µM was 20.3%.

**Q.** `COc1ccc(C2C(C(=O)OCc3ccccc3)=C(C)Nc3nnnn32)c2ccccc12` (stereo not drawn) [PT-421, benzyl 7-(4-methoxynaphthalen-1-yl)-5-methyl-4,7-dihydrotetrazolo[1,5-a]pyrimidine-6-carboxylate] was tested. Which inhibition at 10 µM did it give?
**A.** Its inhibition at 10 µM is 23.5%.

**Q.** With `CCOC(=O)C1=C(C)Nc2nnnn2C1c1ccccc1-c1ccncc1` (stereo not drawn) [PT-460, ethyl 5-methyl-7-(2-(pyridin-4-yl)phenyl)-4,7-dihydrotetrazolo[1,5-a]pyrimidine-6-carboxylate] as the compound, how does the inhibition at 10 µM read?
**A.** The inhibition at 10 µM was 22.1%.

**Q.** `CCOC(=O)CN1C(C)=C(C(=O)OCC)C(c2cccc3ccccc23)n2nnnc21` (stereo not drawn) [PT-449, ethyl 4-(2-ethoxy-2-oxoethyl)-5-methyl-7-(naphthalen-1-yl)-4,7-dihydrotetrazolo[1,5-a]pyrimidine-6-carboxylate] was tested. Which inhibition at 10 µM did it give?
**A.** Its inhibition at 10 µM is 47.6%.

**Q.** For `CC1=C(C(=O)N2CCc3ccccc3C2)C(c2cccc3ccccc23)C2=C(CCCC2=O)N1` (stereo not drawn) [PT-171, 2-methyl-4-(naphthalen-1-yl)-3-(1,2,3,4-tetrahydroisoquinoline-2-carbonyl)-4,6,7,8-tetrahydroquinolin-5(1H)-one], which inhibition at 10 µM is on record?
**A.** Its inhibition at 10 µM is 20.2%.

**Q.** Which inhibition at 10 µM does the source give for `CCCC1=C(C(=O)OCC)C(c2ccsc2)C2=C(CC(C(C)C)CC2=O)N1` (stereo not drawn) [PT-152, ethyl 7-isopropyl-5-oxo-2-propyl-4-(thiophen-3-yl)-1,4,5,6,7,8-hexahydroquinoline-3-carboxylate] here?
**A.** Its inhibition at 10 µM is 41.2%.

**Q.** For `CCOC(=O)C1=C(C)NC2=C(C(=O)CC(C)(C)C2)C1c1cccc(C(=O)O)c1` (stereo not drawn) [PT-132, 3-(3-(ethoxycarbonyl)-2,7,7-trimethyl-5-oxo-1,4,5,6,7,8-hexahydroquinolin-4-yl)benzoic acid], which inhibition at 10 µM is on record?
**A.** The inhibition at 10 µM was -5.3%.

**Q.** How did the inhibition at 10 µM turn out when `CC1=C(C(=O)OCc2ccccc2)C(c2ccc(OC(F)(F)F)cc2)n2nnnc2N1` (stereo not drawn) [PT-357, benzyl 5-methyl-7-(4-(trifluoromethoxy)phenyl)-4,7-dihydrotetrazolo[1,5-a]pyrimidine-6-carboxylate] was run?
**A.** Its inhibition at 10 µM is 19.6%.

**Q.** How did the inhibition at 10 µM turn out when `CCOC(=O)C1=C(C)Nc2ccnn2C1c1ccc(N(C)C)c2ccccc12` (stereo not drawn) [PT-502, ethyl 7-(4-(dimethylamino)naphthalen-1-yl)-5-methyl-4,7-dihydropyrazolo[1,5-a]pyrimidine-6-carboxylate] was run?
**A.** The inhibition at 10 µM was 27%.

**Q.** How did the inhibition at 10 µM turn out when `COc1cc(C#N)ccc1C1C(C(=O)OCc2ccccc2)=C(C)Nc2nnnn21` (stereo not drawn) [PT-417, benzyl 7-(4-cyano-2-methoxyphenyl)-5-methyl-4,7-dihydrotetrazolo[1,5-a]pyrimidine-6-carboxylate] was run?
**A.** Its inhibition at 10 µM is 41.3%.

same assay, conditions: read-out: Late INa % blk

**Q.** `CCOC(=O)C1=C(C)Nc2c(C#N)cnn2C1c1cccc2ccccc12` (stereo not drawn) [PT-091, ethyl 3-cyano-5-methyl-7-(naphthalen-1-yl)-4,7-dihydropyrazolo[1,5-a]pyrimidine-6-carboxylate] was tested. Which inhibition at 10 µM did it give?
**A.** The inhibition at 10 µM was 48.4%.
